In patent US20250282827A1, “LIPIDATED POLYMYXIN ANALOGUES” (priority 2021, published 2025):
In brackets after ≈: the same amount, converted by molar mass. Like-named read-outs stand apart in the source and are kept apart here. Positions of bridges follow the written chain, without caps; N, C: chain ends. Non-standard residues stand in square brackets, D forms with d. Residues, ends and D or L forms follow the SMILES beside them. *: point of attachment. CH2CH2OBz(4-tBu) = CC(C)(C)c1ccc(C(=O)OCC*)cc1; Ethyl(2-propionyloxy) = CCC(=O)OCC*; Ethyl(2-OPiv) = CC(C)(C)C(=O)OCC*; Ethyl(2-OBz) = O=C(OCC*)c1ccccc1; Dab = NCC[C@H](N)C(=O)O; X2 = O=C(OCC*)C1CCCCC1; X12 = O=C(OCC*)C1CCC1; X8 = O=C(OCC*)C1CCCC1

Tests used:
A. baumannii ATCC 19606 = assay type: cell-based, Acinetobacter baumannii
Excerpt: (§1) All 81 compounds prepared in Examples 2 and 3 underwent screening against a panel of Gram-negative bacterium to assess their ability to inhibit bacterial growth. […] The median value is presented.

E. coli ATCC MS8345 = assay type: cell-based, Escherichia coli
Excerpt: as §1
Expansion of the polymyxin macrocycle by substituting […]) offered little advantage in antimicrobial activity but was generally well tolerated although for A. baumanni and P. aeruginosa this was detrimental.

P. aeruginosa ATCC 27853 = assay type: cell-based, Pseudomonas aeruginosa
Excerpt: as §1

[1] = system: kidney organoids derived from human induced pluripotent stem cells; test: Nephrotoxicity on kidney organoids, renal tubule deterioration by bright field imaging; assay type: cell-based; settings: scored after 48 h; further: key: 1 = unaffected; 2 = mild deterioration; 3 = severe deterioration; 4 = complete deterioration
Procedure: Selected polymyxin analogues were evaluated for cytotoxicity in physiologically relevant human kidney tissue, using kidney organoids derived from human induced pluripotent stem cells (Soo et al. 2018). Monolipidated analogues 29, 31, 33, containing a propyl, decyl or phenyl lipid, dilapidated compounds, 35, 38, 39, containing a propyl, tert-butyl or phenyl, lipid, respectively and the N-capped, di-lipidated (phenyl) 49 were selected.
The control compound polymyxin B and the seven ClipPA analogues were tested by adding a range of concentrations (based on Gallado-Godoy et al. 2016) to the organoids at day 12 of the protocol, shown previously to correspond to optimal maturity of the organoid tissues.
Toxicity was scored after 48 h for signs of renal tubule deterioration visible by bright field imaging (not shown).

E. coli ATCC 25922 = assay type: cell-based, Escherichia coli
Excerpt: as §1

[2] = system: K. pneumoniae ATCC 700603; assay type: cell-based, Klebsiella pneumoniae
Excerpt: as §1

[3] = system: K. pneumoniae ATCC MS6671; assay type: cell-based, Klebsiella pneumoniae
Excerpt: as §1

K. pneumoniae ATCC 33495 = assay type: cell-based, Klebsiella pneumoniae
Excerpt: as §1

[4] = colistin-resistant strain, median of triplicate

| MIC A. baumannii ATCC 19606 (A. baumannii ATCC 19606; ATCC 19606) | MIC E. coli ATCC MS8345 (E. coli ATCC MS8345; ATCC MS8345) | MIC P. aeruginosa ATCC 27853 (P. aeruginosa ATCC 27853; ATCC 27853) | MIC E. coli ATCC 25922 (E. coli ATCC 25922; ATCC 25922) | MIC K. pneumoniae ATCC 700603 ([2]; ATCC 700603) | MIC K. pneumoniae ATCC MS6671 ([3]; ATCC MS6671) | MIC K. pneumoniae ATCC 33495 (K. pneumoniae ATCC 33495; ATCC 33495) | Structure (SMILES) | MIC A. baumannii ATCC 19606 (A. baumannii ATCC 19606; median of triplicate) | MIC E. coli ATCC MS8345 (E. coli ATCC MS8345; [4]) | MIC P. aeruginosa ATCC 27853 (P. aeruginosa ATCC 27853; median of triplicate) | Score (nephrotoxicity on kidney organoids) ([1]; 100 μM) | Score (nephrotoxicity on kidney organoids) ([1]; 300 μM) | Score (nephrotoxicity on kidney organoids) ([1]; 1 mM) | MIC E. coli ATCC 25922 (E. coli ATCC 25922; median of triplicate) | MIC K. pneumoniae ATCC 700603 ([2]; median of triplicate) | MIC K. pneumoniae ATCC MS6671 ([3]; median of triplicate) | MIC K. pneumoniae ATCC 33495 (K. pneumoniae ATCC 33495; median of triplicate) |
| --- | --- | --- | --- | --- | --- | --- | --- | --- | --- | --- | --- | --- | --- | --- | --- | --- | --- |
|  |  |  |  |  |  |  | CC(C)C[C@@H]1NC(=O)[C@@H](Cc2ccccc2)NC(=O)[C@H](CCN)NC(=O)[C@@H](NC(=O)[C@H](CCN)NC(=O)[C@@H](NC(=O)[C@H](CCN)NC(=O)[C@@H](N)CSCCOC(=O)c2ccccc2)[C@@H](C)O)CCNC(=O)[C@H]([C@@H](C)O)NC(=O)[C@H](CCN)NC(=O)[C@H](CCN)NC1=O [Compound 33] (H-C(Ethyl(2-OBz))[Dab]T[Dab][Dab][Dab][dF]L[Dab][Dab]T; lactam 5-C) | 0.5 µg/mL (≈ 0.38 µM) | 2 µg/mL (≈ 1.52 µM) | 0.5 µg/mL (≈ 0.38 µM) | 1 | 3 | 4 | 0.25 µg/mL (≈ 0.19 µM) | 0.25 µg/mL (≈ 0.19 µM) | >32 µg/mL | 0.0625 µg/mL (≈ 0.0475 µM) |
|  |  |  |  |  |  |  | CCC(=O)OCCSC[C@H](N)C(=O)N[C@@H](CCN)C(=O)N[C@H](C(=O)N[C@@H](CCN)C(=O)N[C@H]1CCNC(=O)[C@H]([C@@H](C)O)NC(=O)[C@H](CCN)NC(=O)[C@H](CCN)NC(=O)[C@H](CSCCOC(=O)c2ccccc2)NC(=O)[C@@H](Cc2ccccc2)NC(=O)[C@H](CCN)NC1=O)[C@@H](C)O [Compound 44] (H-C(Ethyl(2-propionyloxy))[Dab]T[Dab][Dab][Dab][dF]C(Ethyl(2-OBz))[Dab][Dab]T; lactam 5-C) | 32 µg/mL (≈ 22.8 µM) | 32 µg/mL (≈ 22.8 µM) | 16 µg/mL (≈ 11.4 µM) | 1 | 2 | 3 | 0.5 µg/mL (≈ 0.356 µM) | 0.5 µg/mL (≈ 0.356 µM) | >32 µg/mL | 0.5 µg/mL (≈ 0.356 µM) |
|  |  |  |  |  |  |  | C[C@@H](O)[C@@H]1NC(=O)[C@H](CCN)NC(=O)[C@H](CCN)NC(=O)[C@H](CSCCOC(=O)c2ccccc2)NC(=O)[C@@H](Cc2ccccc2)NC(=O)[C@H](CCN)NC(=O)[C@@H](NC(=O)[C@H](CCN)NC(=O)[C@@H](NC(=O)[C@H](CCN)NC(=O)[C@@H](N)CSCCOC(=O)C(C)(C)C)[C@@H](C)O)CCNC1=O [Compound 46] (H-C(Ethyl(2-OPiv))[Dab]T[Dab][Dab][Dab][dF]C(Ethyl(2-OBz))[Dab][Dab]T; lactam 5-C) | 16 µg/mL (≈ 11.2 µM) |  | 16 µg/mL (≈ 11.2 µM) | 1 | 3 | 4 | 2 to 4 µg/mL | 1 to 2 µg/mL | >32 µg/mL | 2 µg/mL (≈ 1.4 µM) |
|  |  |  |  |  |  |  | CCC(=O)OCCSC[C@@H]1NC(=O)[C@@H](Cc2ccccc2)NC(=O)[C@H](CCN)NC(=O)[C@@H](NC(=O)[C@H](CCN)NC(=O)[C@@H](NC(=O)[C@H](CCN)NC(=O)[C@@H](N)CSCCOC(=O)c2ccccc2)[C@@H](C)O)CCNC(=O)[C@H]([C@@H](C)O)NC(=O)[C@H](CCN)NC(=O)[C@H](CCN)NC1=O [Compound 47] (H-C(Ethyl(2-OBz))[Dab]T[Dab][Dab][Dab][dF]C(Ethyl(2-propionyloxy))[Dab][Dab]T; lactam 5-C) | >32 µg/mL | >32 µg/mL | >32 µg/mL | 1 | 2 | 3 | 2 to 4 µg/mL | 2 to 4 µg/mL | >32 µg/mL | 2 to 4 µg/mL |
|  |  |  |  |  |  |  | C[C@@H](O)[C@@H]1NC(=O)[C@H](CCN)NC(=O)[C@H](CCN)NC(=O)[C@H](CSCCOC(=O)C(C)(C)C)NC(=O)[C@@H](Cc2ccccc2)NC(=O)[C@H](CCN)NC(=O)[C@@H](NC(=O)[C@H](CCN)NC(=O)[C@@H](NC(=O)[C@H](CCN)NC(=O)[C@@H](N)CSCCOC(=O)c2ccccc2)[C@@H](C)O)CCNC1=O [Compound 48] (H-C(Ethyl(2-OBz))[Dab]T[Dab][Dab][Dab][dF]C(Ethyl(2-OPiv))[Dab][Dab]T; lactam 5-C) | 32 µg/mL (≈ 22.3 µM) | >32 µg/mL | 2 µg/mL (≈ 1.4 µM) | 1 | 2 | 4 | 2 µg/mL (≈ 1.4 µM) | 4 µg/mL (≈ 2.79 µM) | >32 µg/mL | 2 to 4 µg/mL |
| 4 µg/mL (≈ 3.35 µM) | >32 µg/mL | 2 µg/mL (≈ 1.68 µM) | 1 µg/mL (≈ 0.839 µM) | 2 µg/mL (≈ 1.68 µM) | >32 µg/mL | 1 µg/mL (≈ 0.839 µM) | CC(C)C[C@@H]1NC(=O)[C@@H](Cc2ccccc2)NC(=O)[C@H](CCN)NC(=O)[C@@H](NC(=O)[C@H](CCN)NC(=O)[C@@H](NC(=O)[C@H](N)CSCCOC(=O)C2CCC2)[C@@H](C)O)CCNC(=O)[C@H]([C@@H](C)O)NC(=O)[C@H](CCN)NC(=O)[C@H](CCN)NC1=O [Compound 101] (H-[dC](X12)T[Dab][Dab][Dab][dF]L[Dab][Dab]T; lactam 4-C) |  |  |  |  |  |  |  |  |  |  |
| 16 µg/mL (≈ 13.3 µM) | 16 µg/mL (≈ 13.3 µM) | 2 µg/mL (≈ 1.66 µM) | 1 µg/mL (≈ 0.829 µM) | 1 µg/mL (≈ 0.829 µM) | >32 µg/mL | 1 µg/mL (≈ 0.829 µM) | CC(C)C[C@@H]1NC(=O)[C@@H](Cc2ccccc2)NC(=O)[C@H](CCN)NC(=O)[C@@H](NC(=O)[C@H](CCN)NC(=O)[C@@H](NC(=O)[C@H](N)CSCCOC(=O)C2CCCC2)[C@@H](C)O)CCNC(=O)[C@H]([C@@H](C)O)NC(=O)[C@H](CCN)NC(=O)[C@H](CCN)NC1=O [Compound 102] (H-[dC](X8)T[Dab][Dab][Dab][dF]L[Dab][Dab]T; lactam 4-C) |  |  |  |  |  |  |  |  |  |  |
| 4 µg/mL (≈ 3.28 µM) | 16 µg/mL (≈ 13.1 µM) | 2 µg/mL (≈ 1.64 µM) | 2 µg/mL (≈ 1.64 µM) | 2 µg/mL (≈ 1.64 µM) | >32 µg/mL | 2 µg/mL (≈ 1.64 µM) | CC(C)C[C@@H]1NC(=O)[C@@H](Cc2ccccc2)NC(=O)[C@H](CCN)NC(=O)[C@@H](NC(=O)[C@H](CCN)NC(=O)[C@@H](NC(=O)[C@H](N)CSCCOC(=O)C2CCCCC2)[C@@H](C)O)CCNC(=O)[C@H]([C@@H](C)O)NC(=O)[C@H](CCN)NC(=O)[C@H](CCN)NC1=O [Compound 103] (H-[dC](X2)T[Dab][Dab][Dab][dF]L[Dab][Dab]T; lactam 4-C) |  |  |  |  |  |  |  |  |  |  |
| 4 µg/mL (≈ 3.15 µM) | 2 µg/mL (≈ 1.57 µM) | 2 µg/mL (≈ 1.57 µM) | 2 µg/mL (≈ 1.57 µM) | 4 µg/mL (≈ 3.15 µM) | >32 µg/mL | 2 µg/mL (≈ 1.57 µM) | CC(C)C[C@@H]1NC(=O)[C@@H](Cc2ccccc2)NC(=O)[C@H](CCN)NC(=O)[C@@H](NC(=O)[C@H](CCN)NC(=O)[C@@H](NC(=O)[C@H](N)CSCCOC(=O)c2ccc(C(C)(C)C)cc2)[C@@H](C)O)CCNC(=O)[C@H]([C@@H](C)O)NC(=O)[C@H](CCN)NC(=O)[C@H](CCN)NC1=O [Compound 104] (H-[dC](CH2CH2OBz(4-tBu))T[Dab][Dab][Dab][dF]L[Dab][Dab]T; lactam 4-C) |  |  |  |  |  |  |  |  |  |  |
